The values below come from patent US12351565B2, “Aromatic compound and preparation method therefor and use thereof” (SHANGHAI JIANHE PHARMACEUTICAL & TECHNOLOGY CO. LTD., priority 2018, dated 2025).

A word on the MRT: it is the average time that molecules of a dose stay in the body. The term half-life denotes how long it takes for the measured level to halve. Low readings indicate rapid decline, high ones slow decline. As a reminder, the clearance is the volume of plasma or blood freed of the substance per unit of time. High values mean a high capacity for elimination, low ones a low capacity for elimination. What is called Cmax is the peak of the concentration-time curve. One may read the Tmax as the time from dosing to the highest level. As a reminder, the IC50 is the midpoint of a concentration-inhibition curve.

Data set [1] relates to C57 mice. Description: Forced swimming experiment, oral administration to mice. Format: in vivo. Conditions: C57 mice. As to the method: 1 h and 24 h after a single oral administration of 20 mg/kg, forced swimming experiments were then carried out to investigate the effects of different compounds on depression-like behavior in C57 mice.
(§1) Experimental animals were 6-week aged C57 mice, male, C57 mice were purchased from Shanghai SLAC Laboratory Animal Co., Ltd., with a body weight of 20.45±0.19 g. Before the experiment, they arrived at the Animal Feeding Center of Shanghai Institute of Materia Medica, Chinese Academy of Sciences (Animal Production License: SCXK9[Shanghai]2004-0002, usage license: SYXK[Shanghai]2003-0029), and adapted for 3 days or more in animal facilities. They were bred at 6 animals/cage. The breeding environment was room temperature 23±0.2° C., with 12/12 hours alternation of day and night. Before the behavioral test, the animals should be moved to the behavioral test operation room 2 hours in advance to adapt to the environment and reduce their tension.
Preparation of the test product: each test compound was accurately weighed and dissolved in 0.9% NaCl solution, mixed thoroughly, and prepared into 1 mg/ml and 2 mg/ml solutions respectively, and set aside.
(§2) 24 hours before the administration, the mice were placed in a cylindrical tank to adapt to the aquatic environment for 10 min. On the day of the behavioral test, the animals were respectively administered intragastrically once at 1 h and 24 h before the behavioral test. The mice were placed individually into a cylindrical glass tank with a height of 30 cm and a diameter of 20 cm. The water depth in the tank was 15 cm, so that the animals could not escape from the glass tank and their feet and tails could not touch the bottom of the tank, the water temperature was 23° C.-25° C. A 6 minute video was taken after the mouse entered into water. Since most animals were very active in the first two minutes, the immobility time in the following 4 minute were calculated (criterion of immobility: the mouse stops struggling in the water, stays still and has small limbs movement to maintain balance or to keep a floating state).
The antidepressant effect of a compound was evaluated by the ability of the compound to reduce the immobility time of the animal in the forced swimming test as compared with the blank group. Inhibition rate1 h(%)=immobility time(blank, 1 h)−immobility time(administration, 1 h)/immobility time(blank, 1 h)×100% Inhibition rate24h(%)=immobility time(blank, 24 h)−immobility time(administration, 24 h)/immobility time(blank, 24 h)×100%

Data set [2] can be described thus: In vivo pharmacokinetic experiment in mice. Conditions: C57 mice. As to the method: Healthy male C57 mice were randomly divided into groups with 3 mice in each group, and the test compounds were administrated intragastrically or by intravenous injection. See Table 6 below for specific arrangements:
(§3) Each test compound was dissolved in physiological saline to prepare a certain concentration of solution for administration.
(§4) One day before administration, the mice were fasted and allowed to drink freely for 12-14 h. The mice were fed 4 h after administration.
0.030 mL of blood was took from each animal each time through the orbit, and anticoagulated with EDTAK2. The collection time points were as follows: in PO group, 5 min, 15 min, 30 min, 1 h, 2 h, 4 h, 6 h, 8 h, 24 h after administration of test substance; in IV group, 2 min, 5 min, 15 min, 30 min, 1 h, 2 h, 4 h, 6 h, 8 h, 24 h after administration of test substance. After blood samples were collected, they were placed on ice and centrifuged to separate the plasma within 30 minutes (centrifugation conditions: 5000 rpm, 10 minutes, 4° C.). The sample were stored at −80° C. before analysis.

The nature of data set [3]: Distribution in mouse brain tissue. Conditions: male, brain, po; C57 mouse, 10 mg/kg p.o., 30 min. Format: in vivo, C57 mice. As to the method:
Healthy male C57 mice were randomly divided into groups with 3 mice in each group, and the test compound was administrated intragastrically. See Table 10 below for specific arrangements:
as §3, §4
After the animals were bled, the brain tissue was collected. After washing, 50% ice methanol was added for homogenate at 1:4 (m/v). The collection time points was 10 min, 15 min, 30 min, 1 h, 2 h after administration of the test substance; 30.0 μL of tissue sample was taken (the sample was taken out from the refrigerator at −80° C., vortexed for 30 seconds after natural melting at room temperature) and added into a 1.5 mL centrifuge tube. 300.0 μL internal standard solution (30 ng/mL […] acetonitrile solution) was added, the mixture was vortex for 60 seconds and then centrifuged for 3 minutes (centrifugal force was 12000 rpm); 75 μL of the supernatant was taken and transferred to 96-well injection plate loaded with equal volume of water, shaken and mixed well, and subjected to LC-MS/MS analysis, wherein injection volume was 10 μL.

A further data set has as its target T1, hERG potassium channel (Homo sapiens, UniProt Q12809).
T1 construct: expressed in transfected cells
Briefly: hERG potassium channel inhibition experiment (automatic patch clamp, CHO-hERG cells). Format: cell-based. Conditions: Qpatch, highest tested concentration 40 μM, read-out: IC50, blocking effect on the hERG potassium current. The protocol: Fully automatic patch clamps were used to test the blocking effect of the compounds of the present invention on the hERG potassium current on a stable cell line transfected with hERG potassium channels.
CHO-hERG cells were cultured in 175 cm^2 culture flask. When the cell grew to 60-80% confluence, the culture medium was removed. The cells were washed with 7 ml PBS (Phosphate Buffered Saline) once, and then 3 ml Detachin was added to digest.
After the digestion was completed, 7 ml culture medium was added to neutralize. The mixture was centrifuged, and after the supernatant was removed, 5 ml culture medium was added to resuspend to ensure the cell density was 2×10^6-5×10^6/ml.
Single-cell high-impedance sealing and whole-cell mode formation were all automatically completed by using the Qpatch instrument. After the recording mode was obtained, the cell was clamped at −80 millivolts. Before +40 millivolt depolarization stimulation for 5 seconds was given, −50 millivolt pre-voltage for 50 millisecond was first given, then repolarized to −50 millivolt for 5 seconds, and then returned to −80 millivolt. This voltage stimulus was applied every 15 seconds. After recording for 2 min, extracellular fluid was given, and recording was conducted for 5 min, and then the dosing process started. The compound concentration started from the lowest test concentration, and each test concentration was given for 2.5 min. […] At least 3 cells per concentration (n≥3) were tested.
20 mM compound mother liquor was diluted with extracellular fluid. 5 μL of 20 mM compound mother liquor was taken and added into 2495 μL extracellular fluid, so that it was diluted 500 times to 40 μM, and was then serially diluted 3 times in an extracellular fluid containing 0.2% DMSO to obtain the final concentration to be tested.
The highest tested concentration was 40 μM, and the concentrations were in order as follows: 40, 13.33, 4.44, 1.48, 0.49, 0.16 μM, totally 6 concentrations.
Experimental data were analyzed by XLFit software.

Data set [4] has as its system C57 mice. Briefly: Forced swimming experiment, intraperitoneal administration to mice. It is filed as in vivo. Conditions: for inhibition in vivo at 10 mg/kg: Mus musculus, ip. As to the method:
The forced-swimming test is currently the most widely used classic method to evaluate the antidepressant effects of compounds in rodents. […] The time in immobile state of experimental animal is observed and recorded, which can be used to evaluate the effect of antidepressant compounds.
1 h and 24 h after a single intraperitoneal administration of 10 mg/kg, forced swimming tests were respectively carried out to investigate the effects of different compounds on depression-like behaviors of C57 mice.
as §1, with “male, and” for “male,”
Preparation of the test product: each test compound was accurately weighed and dissolved in 0.9% NaCl solution, mixed thoroughly, and prepared as a 1 mg/ml solution, set aside.
as §2, with “intraperitoneally” for “intragastrically”
The antidepressant effect of a compound was evaluated by the ability of the compound to reduce the immobility time of the animal in the forced swimming test as compared with the blank group. The shorter the immobility time of the animal to be tested, the higher the inhibition rate and the stronger the antidepressant activity. Inhibition rate1 h(%)=immobility time(blank, 1 h)−immobility time(administration, 1 h)/immobility time(blank, 1 h)×100% Inhibition rate24 h(%)=immobility time(blank, 24 h)−immobility time(administration, 24 h)/immobility time(blank, 24 h)×100%

The conditions of data set [5]: 30 mg/kg intraperitoneally, literature (Journal of Pharmaceutical and Biomedical Analysis, 2018, 148, 288-297); cited from earlier work.
Setting [6] is: inhibition of immobility time, forced swimming 1 h after single oral (intragastric) 20 mg/kg.
Where [7] appears, read: inhibition of immobility time, forced swimming 24 h after single oral (intragastric) 20 mg/kg.
[8] abbreviates: male, mouse, iv, 5 mg/kg i.v., plasma.
[9] abbreviates: male, mouse, po, 20 mg/kg p.o., plasma.
Setting [10] is: 1 h, read-out: 1 h inhibition rate.
[11] abbreviates: 24 h, read-out: 24 h inhibition rate.

Where a name gives a salt, the structure may show the parent alone. Read-outs that look alike come from different tables or passages of the source.

T1 sequence (Q12809 whole entry): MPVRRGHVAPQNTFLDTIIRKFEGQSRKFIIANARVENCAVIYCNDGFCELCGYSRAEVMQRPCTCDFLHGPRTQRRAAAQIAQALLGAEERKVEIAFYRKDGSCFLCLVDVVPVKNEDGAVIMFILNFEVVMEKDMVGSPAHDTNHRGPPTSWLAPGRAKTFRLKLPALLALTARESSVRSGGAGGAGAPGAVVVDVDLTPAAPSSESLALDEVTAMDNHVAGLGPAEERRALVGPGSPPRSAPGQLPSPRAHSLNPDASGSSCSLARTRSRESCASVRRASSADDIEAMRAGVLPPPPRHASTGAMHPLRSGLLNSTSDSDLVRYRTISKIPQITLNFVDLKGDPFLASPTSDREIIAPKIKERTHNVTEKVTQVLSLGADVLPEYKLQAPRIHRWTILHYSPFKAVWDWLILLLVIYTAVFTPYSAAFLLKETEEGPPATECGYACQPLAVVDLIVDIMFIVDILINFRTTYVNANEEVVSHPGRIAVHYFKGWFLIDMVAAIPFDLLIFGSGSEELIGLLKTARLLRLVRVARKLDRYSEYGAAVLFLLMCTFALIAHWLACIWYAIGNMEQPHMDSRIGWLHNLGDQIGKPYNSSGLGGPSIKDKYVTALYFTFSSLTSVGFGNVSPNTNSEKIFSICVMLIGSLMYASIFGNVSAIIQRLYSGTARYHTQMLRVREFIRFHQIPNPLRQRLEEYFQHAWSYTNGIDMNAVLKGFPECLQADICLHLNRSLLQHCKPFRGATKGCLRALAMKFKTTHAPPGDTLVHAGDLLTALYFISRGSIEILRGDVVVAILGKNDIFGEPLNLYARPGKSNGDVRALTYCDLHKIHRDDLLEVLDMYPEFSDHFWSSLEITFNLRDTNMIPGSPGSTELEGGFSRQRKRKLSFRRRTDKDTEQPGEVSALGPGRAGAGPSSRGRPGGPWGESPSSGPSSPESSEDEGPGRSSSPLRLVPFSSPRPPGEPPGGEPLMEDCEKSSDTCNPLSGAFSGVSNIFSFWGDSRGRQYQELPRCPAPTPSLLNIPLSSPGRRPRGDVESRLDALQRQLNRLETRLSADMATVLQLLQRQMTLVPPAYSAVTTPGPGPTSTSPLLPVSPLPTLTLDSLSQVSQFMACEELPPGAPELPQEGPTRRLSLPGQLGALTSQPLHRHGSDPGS

For the compound `Cl.N[C@@]1(c2cccc(OC(F)(F)F)c2F)CCC[C@@H](O)C1=O` [Compound 64, (2R,6R)-2-amino-2-(2-fluoro-3-(trifluoromethoxy)phenyl)-6-hydroxycyclohexane-1-one hydrochloride], the “1 h inhibition rate” value in the data set with C57 mice [1] (setting [6]) is 36.5 ± 5.3%. Besides, the “24 h inhibition rate” value with C57 mice [1] (setting [7]) was 34.5 ± 1.0%. In addition, in data set [2] (5 mg/kg i.v., plasma), the AUC0-t was 4817 ngh/mL and the “AUC0-∞” value is recorded as 4838 ngh/mL. This compound displayed a F in data set [2] (20 mg/kg p.o. vs 5 mg/kg i.v.) of 66.2%. In data set [2] (20 mg/kg p.o., plasma), the AUC0-t is recorded as 12708 ngh/mL and the “AUC0-∞” value stood at 12816 ngh/mL. In addition, in data set [2] (setting [8]), the MRT was found to be 52.8 min and the half-life is 52.2 min. Also, in data set [2] (male, mouse, plasma, iv, 5 mg/kg i.v.), the clearance was found to be 17.2 mL/min/kg. For the same compound, in data set [2] (male, mouse, plasma, iv, 5 mg/kg i.v., read-out: Vss), the Vd turned out to be 0.91 L/kg. Besides, in data set [2] (setting [9]), the Cmax came out at 11900 ng/mL, the MRT was 125 min, the Tmax is 5 min and the half-life is 239 min. This compound also registered a concentration at 30 min in data set [3] of 5740 ng/g. In addition, the IC50 on hERG potassium channel was greater than 40 µM.

`CNC1(c2ccccc2Cl)CCCCC1=O` (stereo not drawn) [Ketamine, ketamine, reference compound]: the inhibition in vivo at 10 mg/kg in the data set with C57 mice [4] (setting [10]) was found to be 29.2%; in the data set with C57 mice [4] (setting [11]), 35.4 ± 7.9%. The “1 h inhibition rate” value in the data set with C57 mice [4] (inhibition of immobility time, forced swimming 1 h after single intraperitoneal 10 mg/kg, C57 mice) is listed as 29.2 ± 4.6%; in the data set on C57 mice [1] (control given intraperitoneally 10 mg/kg, 1 h), 22.7 ± 0.2%. Moreover, the “24 h inhibition rate” value with C57 mice [1] (control given intraperitoneally 10 mg/kg, 24 h) stood at 25.1 ± 2.7%. Moreover, in data set [5], the Brain tissue concentration was 1929 ng/g.

Consider `NC1(c2c(F)cc(F)cc2F)CCCC(O)C1=O` (stereo not drawn) [Compound 73, 2-amino-6-hydroxy-2-(2,4,6-trifluorophenyl)cyclohexane-1-one hydrochloride], for which the inhibition in vivo at 10 mg/kg with C57 mice [4] (setting [10]) is 38.6 ± 6%; in the data set on C57 mice [4] (setting [11]) it was 36.9 ± 3.9%. Besides, the IC50 on hERG potassium channel is greater than 40 µM.

Consider `Cl.NC1(c2cccc(F)c2F)CCCC(O)C1=O` (stereo not drawn) [Compound 44, 2-amino-2-(2,3-difluorophenyl)-6-hydroxycyclohexane-1-one hydrochloride], for which the inhibition in vivo at 10 mg/kg in the data set on C57 mice [4] (setting [10]) turned out to be 36.5 ± 2.9%; in the data set on C57 mice [4] (setting [11]), 53.5 ± 0.2%. Besides, the “1 h inhibition rate” value in the data set with C57 mice [1] (setting [6]) came out at 27.3 ± 1.2%. For the same compound, the “24 h inhibition rate” value with C57 mice [1] (setting [7]) is reported as 22.3 ± 2.3%. For the same compound, the IC50 at hERG potassium channel was greater than 40 µM.

Take `Cl.NC1(c2ccc(C(F)(F)F)cc2)CCCC(O)C1=O` (stereo not drawn) [Compound 46, 2-amino-6-hydroxy-2-(4-(trifluoromethyl)phenyl)cyclohexane-1-one hydrochloride]: the inhibition in vivo at 10 mg/kg with C57 mice [4] (setting [10]) turned out to be 34.7 ± 4.1%; in the data set on C57 mice [4] (setting [11]), 43.5%. The “1 h inhibition rate” value in the data set on C57 mice [1] (setting [6]) amounted to 31.2 ± 4.7%. In the data set with C57 mice [1] (setting [7]), the “24 h inhibition rate” value is listed as 32.3 ± 1.5%. The IC50 at hERG potassium channel was greater than 40 µM.

On to `NC1(c2ccccc2C(F)(F)F)CCCC(O)C1=O` (stereo not drawn) [Compound 45, 2-amino-6-hydroxy-2-(2-(trifluoromethyl)phenyl)cyclohexane-1-one hydrochloride], for which the inhibition in vivo at 10 mg/kg was determined as 33 ± 4.1% in the data set on C57 mice [4] (setting [10]) and 44.5 ± 2.2% in the data set on C57 mice [4] (setting [11]). Further, the IC50 at hERG potassium channel is greater than 40 µM.
